The record followed here is ChEMBL document CHEMBL5346862, “Discovery of the thieno[2,3-d]pyrimidine-2,4-dione derivative 21a: A potent and orally bioavailable gonadotropin-releasing hormone receptor antagonist” (Eur J Med Chem, 2022).

A short description of series [1]: Apparent permeability across apical to basolateral side in human Caco-2 cells incubated for 180 mins by LC/MS/MS analysis. In kind it is ADME, cell-based. As to conditions: for Papp A→B at 3 h: Caco-2.
Series [2] can be described thus: Apparent permeability across basolateral to apical side in human Caco-2 cells incubated for 180 mins by LC/MS/MS analysis. As to conditions: for Papp B→A at 3 h: Caco-2. Format: ADME, cell-based.
Series [3] in a line: Intrinsic clearance in human liver microsomes incubated for 15 mins in presence of NADPH by LC-MS analysis. Format: ADME, Microsome. As to conditions: read-out: CLH.
The nature of series [4]: Intrinsic clearance in rat liver microsomes incubated for 15 mins in presence of NADPH by LC-MS analysis. Conditions: read-out: CLH. Format: ADME, Microsome.
Series [5] can be described thus: Tmax in Sprague-Dawley rat at 12 mg/kg, po measured for 24 hrs by LC/MS analysis. Format: ADME, organism-based. Conditions: in vivo.
Series [6] can be described thus: Cmax in Sprague-Dawley rat at 12 mg/kg, po measured for 24 hrs by LC/MS analysis. On the set-up: dose 12 mg/kg, time 24 hrs, route po. In kind it is ADME, organism-based. As to conditions: in vivo.
Series [7] can be described thus: AUC(last) in Sprague-Dawley rat at 12 mg/kg, po measured for 24 hrs by LC/MS analysis. In kind it is ADME, organism-based. More on the design: time 24 hrs, dose 12 mg/kg, route po. Conditions: in vivo.
Series [8] can be described thus: Half-life in Sprague-Dawley rat at 12 mg/kg, po measured for 24 hrs by LC/MS analysis. Conditions: in vivo. Format: ADME, organism-based.
A short description of series [9]: Oral bioavailability in Sprague-Dawley rat at 12 mg/kg measured for 24 hrs by LC/MS analysis. In kind it is ADME, organism-based. As to conditions: in vivo.
Series [10] in a line: Cmax in Sprague-Dawley rat at 1 mg/kg, iv measured for 24 hrs by LC/MS analysis. In kind it is ADME, organism-based. More on the design: time 24 hrs, dose 1 mg/kg, route iv. As to conditions: in vivo.
The nature of series [11]: AUC(last) in Sprague-Dawley rat at 1 mg/kg, iv measured for 24 hrs by LC/MS analysis. Format: ADME, organism-based. On the set-up: dose 1 mg/kg, time 24 hrs, route iv. As to conditions: in vivo.
Series [12] can be described thus: Clearance in Sprague-Dawley rat at 1 mg/kg, iv measured for 24 hrs by LC/MS analysis. Conditions: in vivo. Format: ADME, organism-based.
Series [13] can be described thus: Half-life in Sprague-Dawley rat at 1 mg/kg, iv measured for 24 hrs by LC/MS analysis. Conditions: in vivo. Format: ADME, organism-based.
The nature of series [14]: Drug uptake in Sprague-Dawley rat hypothalamus and pituitary at 12 mg/kg, po measured after 1 hr by LC-MS/MS analysis. Format: ADME, organism-based, Hypothalamus/Pituitary gland. As to conditions: read-out: Drug uptake.
A short description of series [15]: Drug uptake in Sprague-Dawley rat hypothalamus and pituitary at 12 mg/kg, po measured after 4 hrs by LC-MS/MS analysis. Format: ADME, organism-based, Hypothalamus/Pituitary gland. As to conditions: read-out: Drug uptake.
Series [16] can be described thus: Drug uptake in Sprague-Dawley rat hypothalamus and pituitary at 12 mg/kg, po measured after 12 hrs by LC-MS/MS analysis. Format: ADME, organism-based, Hypothalamus/Pituitary gland. Conditions: read-out: Drug uptake.
Series [17] in a line: Drug uptake in Sprague-Dawley rat heart at 12 mg/kg, po measured after 1 hr by LC-MS/MS analysis. In kind it is ADME, organism-based. Conditions: read-out: Drug uptake.
The nature of series [18]: Lipophilicity, log D of the compound at pH 7.4. Conditions: buffer. Format: physicochemical.

Regarding `COCCN(C)Cc1c(-c2ccc(NC(=O)NOC)cc2)sc2c1c(=O)n(-c1ccc(OC)nn1)c(=O)n2Cc1c(F)cccc1F`, in [1], the apical-to-basolateral permeability (Papp A→B) at 3 h was determined as 0.031 ×10⁻⁶ cm/s. The Papp B→A at 3 h in [2] was determined as 42.2 ×10⁻⁶ cm/s. The values for the CLint scaled at […] in series [3] and in series [4] were below 6.75 mL/min/kg and 15.8 mL/min/kg, respectively. Further, the Tmax in series [5] stood at 0.31 h. For the same compound, the highest concentration (Cmax) in series [6] stood at 329 nM; in [10] it was 1230 nM. Besides, the exposure AUC(0-t) at 24 h in series [7] is 0.904 µM·h; in [11], 0.689 µM·h. In addition, the half-life in [8] is 4.33 h; in series [13] it was 2.6 h. In series [9], this compound returned a bioavailability of 10.9%. The clearance in [12] is 38.7 mL/min/kg.

As for `CONC(=O)Nc1ccc(-c2sc3c(c2CN(C)C)c(=O)n(-c2ccc(OC(F)F)nn2)c(=O)n3Cc2c(F)cccc2F)cc1`, the apical-to-basolateral permeability (Papp A→B) at 3 h in [1] was 0.019 ×10⁻⁶ cm/s. Moreover, the basolateral-to-apical permeability (Papp B→A) at 3 h in series [2] was 15.1 ×10⁻⁶ cm/s. The figures for the CLint scaled at […] in [3] and in series [4] were below 6.75 mL/min/kg and 16.6 mL/min/kg, respectively.

In the case of `CNc1ccc(-n2c(=O)c3c(CN(C)C)c(-c4ccc(NC(=O)NOC)cc4)sc3n(Cc3c(F)cccc3F)c2=O)nn1`, the Papp A→B at 3 h in [1] stood at 0.05 ×10⁻⁶ cm/s. Besides, in [2], the apparent permeability from basolateral to apical (Papp B→A) at 3 h turned out to be 0.5 ×10⁻⁶ cm/s. The results for the CLint scaled at […] in series [3] and in [4] were below 6.75 mL/min/kg and 34.9 mL/min/kg, respectively.

As for `COc1ccc(-n2c(=O)c3c(CN(C)C)c(-c4ccc(NC(=O)NOCC(F)F)cc4)sc3n(Cc3c(F)cccc3F)c2=O)nn1`, the Papp A→B at 3 h in series [1] was found to be 0.01 ×10⁻⁶ cm/s. The Papp B→A at 3 h in series [2] was 15.7 ×10⁻⁶ cm/s. Moreover, the CLint scaled at […] in series [3] was 7.38 mL/min/kg; in series [4], 45.4 mL/min/kg.

Turning to `CONC(=O)Nc1ccc(-c2sc3c(c2CN(C)C)c(=O)n(-c2cccc(OC)c2F)c(=O)n3Cc2c(F)cccc2F)cc1`, in series [1], the apparent permeability from apical to basolateral (Papp A→B) at 3 h was 0.051 ×10⁻⁶ cm/s. Besides, the apparent permeability from basolateral to apical (Papp B→A) at 3 h in [2] came out at 21.1 ×10⁻⁶ cm/s. Further, the values for the CLint scaled at […] in [3] and in series [4] were 52 mL/min/kg and 211 mL/min/kg, respectively.

For `CONC(=O)Nc1ccc(-c2sc3c(c2CN(C)CCOC(F)(F)F)c(=O)n(-c2ccc(OC)nn2)c(=O)n3Cc2c(F)cccc2F)cc1`, in series [1], the Papp A→B at 3 h stood at 0.984 ×10⁻⁶ cm/s. In addition, the values for the CLint scaled at […] in [3] and in series [4] were 14.2 mL/min/kg and 37.1 mL/min/kg, respectively. In addition, the Tmax in series [5] came to 1.13 h. In addition, the Cmax was determined as 920 nM in series [6] and 3920 nM in [10]. Also, the AUC(0-t) at 24 h was 7.37 µM·h in series [7] and 1.37 µM·h in [11]. The half-life was 4.86 h in [8] and 2.79 h in series [13]. In series [9], this compound registered a bioavailability of 44.7%. Also, in series [12], the clearance was 17.5 mL/min/kg.

`CONC(=O)Nc1ccc(-c2sc3c(c2CN(C)C)c(=O)n(-c2ccc(OC)nn2)c(=O)n3Cc2c(F)cccc2C(F)(F)F)cc1`: in series [1], the Papp A→B at 3 h amounted to 0.011 ×10⁻⁶ cm/s. Besides, the Papp B→A at 3 h in [2] was 4.58 ×10⁻⁶ cm/s. Further, the CLint scaled at […] was below 6.75 mL/min/kg in series [3] and below 13.5 mL/min/kg in series [4].

As for `COc1ccc(-n2c(=O)c3c(CN(C)C)c(-c4ccc(NC(=O)NOCC(F)(F)F)cc4)sc3n(Cc3c(F)cccc3F)c2=O)nn1`, the Papp A→B at 3 h in series [1] was determined as 0.009 ×10⁻⁶ cm/s. In series [2], the Papp B→A at 3 h stood at 17.2 ×10⁻⁶ cm/s. The CLint scaled at […] in series [3] is below 6.75 mL/min/kg; in [4], 38.9 mL/min/kg.

On to `CCc1ccc(-n2c(=O)c3c(CN(C)C)c(-c4ccc(NC(=O)NOC)cc4)sc3n(Cc3c(F)cccc3F)c2=O)nn1`, for which the Papp A→B at 3 h in series [1] worked out at 0.013 ×10⁻⁶ cm/s. In addition, in [2], the apparent permeability from basolateral to apical (Papp B→A) at 3 h amounted to 10.2 ×10⁻⁶ cm/s. Also, the CLint scaled at […] in [3] was found to be 17.6 mL/min/kg; in [4] it was 31.3 mL/min/kg.

Turning to `C[C@H]1O[C@@H](O[C@H]2[C@@H](O)C[C@H](O[C@H]3[C@@H](O)C[C@H](O[C@H]4CC[C@@]5(C)[C@H](CC[C@@H]6[C@@H]5C[C@@H](O)[C@]5(C)[C@@H](C7=CC(=O)OC7)CC[C@]65O)C4)O[C@@H]3C)O[C@@H]2C)C[C@H](O)[C@@H]1O` [DIGOXIN], the apparent permeability from apical to basolateral (Papp A→B) at 3 h in series [1] worked out at 0.013 ×10⁻⁶ cm/s. In addition, the basolateral-to-apical permeability (Papp B→A) at 3 h in series [2] was found to be 12.8 ×10⁻⁶ cm/s.

For the compound `CONC(=O)Nc1ccc(-c2sc3c(c2CN(C)C)c(=O)n(-c2ccc(OC)nn2)c(=O)n3Cc2c(F)cccc2F)cc1` [RELUGOLIX], the Papp in [1] (caco-2, 3 h) is reported as 0.007 10^-6 cm/s; in series [2] (caco-2, 3 h) it was 13.84 10^-6 cm/s. The CLint scaled at […] in series [3] is 5.22 mL/min/kg; in series [4] it was 29.5 mL/min/kg. The time of peak concentration (Tmax) in [5] was 0.33 h. Besides, the values for the Cmax in series [6] and in series [10] were 35.3 nM and 544 nM, respectively. Further, the AUC(0-t) at 24 h in series [7] worked out at 0.234 µM·h; in series [11] it was 0.34 µM·h. Moreover, the half-life in series [8] was 3.88 h; in [13] it was 3.64 h. This compound also displayed a bioavailability in [9] of 5.7%. The same compound had a clearance in series [12] of 78.3 mL/min/kg. Moreover, the concentration at 1 h was determined as 4.46 ng/g in [14] and 429 ng/g in series [17]. Also, the concentration at 4 h in series [15] was 9.2 ng/g. The concentration at 12 h in series [16] amounted to 3.2 ng/g. In series [18], this compound yielded a logD of 1.24.
